According to patent US20230117606A1, “COMPOSITIONS AND METHODS FOR THE TREATMENT OF INTRACELLULAR BACTERIAL INFECTIONS” (Endolytix Technology, Inc., priority 2020, published 2023):

tested on: M. abscessus; test: Cell growth assay of M. abscessus with ABIα and antibiotic, Fractional Inhibitory Concentration (FIC) index; assay type: cell-based, Mycobacterium abscessus; conditions: antibiotic in combination with ABIα; FIG. 5

| SMILES | effect by FIC index on attenuation of M. abscessus growth |
| --- | --- |
| CO[C@@]1(NC(=O)Cc2cccs2)C(=O)N2C(C(=O)O)=C(COC(N)=O)CS[C@@H]21 [cefoxitin] | synergistic effects |
| C[C@@H](O)[C@H]1C(=O)N2C(C(=O)[O-])=C(SC3Cn4cnc[n+]4C3)[C@H](C)[C@H]12 (stereo partly drawn) [biapenem] | synergistic effects |
| NCC[C@H](O)C(=O)N[C@@H]1C[C@H](N)[C@@H](O[C@H]2O[C@H](CN)[C@@H](O)[C@H](O)[C@H]2O)[C@H](O)[C@H]1O[C@H]1O[C@H](CO)[C@@H](O)[C@H](N)[C@H]1O [amikacin] | synergistic effects |
